Measurements: PMC6344531, “Discovery and evaluation of inhibitor of LARP6 as specific antifibrotic compound” (Scientific Reports, 2019)

Target: T1, LARP6 (Homo sapiens, UniProt Q9BRS8)
T1 construct: LARP6*, amino-acids 72–303, His-tag
T1 sequence (Q9BRS8 72-303): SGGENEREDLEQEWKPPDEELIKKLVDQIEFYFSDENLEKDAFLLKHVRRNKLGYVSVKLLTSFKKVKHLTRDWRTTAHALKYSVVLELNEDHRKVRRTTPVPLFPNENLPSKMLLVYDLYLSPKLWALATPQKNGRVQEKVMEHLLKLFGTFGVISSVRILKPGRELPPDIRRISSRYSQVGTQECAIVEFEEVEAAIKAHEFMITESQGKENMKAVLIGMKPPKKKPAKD
Assay: FP dissociation of LARP6* from fluorescein-labelled […]'SL RNA; intrinsic tryptophan fluorescence quenching of LARP6*; gel mobility shift with extracts of treated cells
Format: binding

Cc1cccn2c(=O)c3cc(C(=O)Nc4cccnc4)n(C)c3nc12 [C9]
IC50: ~15 µM
